Here are results for eleven compounds from patent US11180504B2 (ORCHID PHARMA LTD., priority 2016, dated 2021).

Assay [1] relates to methicillin-sensitive Staphylococcus aureus. The experiment in a line: MIC by broth micro-dilution (CLSI), methicillin-sensitive S. aureus. The format is cell-based. The settings on record: Staphylococcus aureus, ATCC 29213 / MSSA, MSSA S. aureus ATCC29213; read-out: MIC. For orientation: Dilution methods test growth across graded concentrations, often in twofold steps.
For assay [2], the system named is carbapenem sensitive Escherichia coli. The assay is described as follows: MIC by broth micro-dilution (CLSI), carbapenem sensitive E. coli. The settings on record: Escherichia coli, ATCC25922, ESBL −ve E. coli ATCC25922; read-out: MIC. The format is cell-based.
The test system of assay [3] is extended spectrum β lactamase (ESBL) SHV18 producing Klebsiella pneumoniae. The assay is described as follows: MIC by broth micro-dilution (CLSI), ESBL SHV18 producing K. pneumoniae. The assay is classed as cell-based. The settings on record: Klebsiella pneumoniae, ATCC700603, 22 h, ESBL +ve (SHV-18) K. pneumoniae ATCC700603; read-out: MIC.
Assay [4] relates to carbapenemase producing K. pneumoniae. The assay is described as follows: MIC by broth micro-dilution (CLSI), carbapenemase producing K. pneumoniae. The assay is classed as cell-based, Klebsiella pneumoniae. The settings on record: Klebsiella pneumoniae, ATCCBAA1705, KPC-2 K. pneumoniae ATCC BAA-1705; read-out: MIC.
Assay [5] has as its system carbapenem sensitive Pseudomonas aeruginosa. The experiment in a line: MIC by broth micro-dilution (CLSI), carbapenem sensitive P. aeruginosa. The assay is classed as cell-based. The settings on record: Pseudomonas aeruginosa, ATCC27853, Meropenem susceptible P. aeruginosa ATCC27853; read-out: MIC.

SMILES strings stand for the structures. Values after ≈ are worked out from the molar mass of the structure shown. Bounds are passed on as bounds.

As to `CNC(=O)[C@@H]1C[C@H](N)CN1C(=O)[C@@H]1C[C@H](SC2=C(C(=O)O)N3C(=O)[C@H]([C@@H](C)NC(=O)C(F)F)[C@H]3[C@H]2C)CN1` [Example 141], the MIC in assay [1] is 4 to 8 µg/mL (≈ 7.16 to 14.3 µM); in assay [2], 1 µg/mL (≈ 1.79 µM); in assay [3], 4 to 8 µg/mL (≈ 7.16 to 14.3 µM); in assay [4] it was 4 to 8 µg/mL (≈ 7.16 to 14.3 µM); in assay [5], 64 µg/mL (≈ 115 µM).
On to `C[C@@H](NC(=O)[C@@H]1CCCN1)[C@H]1C(=O)N2C(C(=O)O)=C(S[C@@H]3CN[C@H](CNS(N)(=O)=O)C3)[C@H](C)[C@H]12` [Example 225], for which the minimal inhibitory concentration (MIC) in assay [1] turned out to be 16 µg/mL (≈ 31 µM); in assay [2], 1 µg/mL (≈ 1.94 µM); in assay [3], 32 µg/mL (≈ 61.9 µM); in assay [4] it was 2 µg/mL (≈ 3.87 µM); in assay [5], 64 µg/mL (≈ 124 µM).
On the same counts, the results for `C[C@@H](NC(=O)C(F)F)[C@H]1C(=O)N2C(C(=O)O)=C(S[C@@H]3CN[C@H](C(=O)N4CCC[C@H](N)C4)C3)[C@H](C)[C@H]12` [Example 122] are 1 µg/mL (≈ 1.94 µM), 1 µg/mL (≈ 1.94 µM), 4 µg/mL (≈ 7.76 µM), 4 µg/mL (≈ 7.76 µM) and 16 µg/mL (≈ 31 µM).
On the same counts, the results for `COC(=O)C(=O)N[C@H](C)[C@H]1C(=O)N2C(C(=O)O)=C(S[C@@H]3CN[C@H](C(=O)N(C)C)C3)[C@H](C)[C@H]12` [Example 74] are 8 to 16 µg/mL (≈ 17.1 to 34.1 µM), 1 to 2 µg/mL (≈ 2.13 to 4.27 µM), 1 to 2 µg/mL (≈ 2.13 to 4.27 µM), 4 µg/mL (≈ 8.54 µM) and 8 µg/mL (≈ 17.1 µM).
Take `C[C@@H](NS(=O)(=O)c1ccc(F)cc1)[C@H]1C(=O)N2C(C(=O)O)=C(S[C@@H]3CN[C@H](C(=O)N(C)C)C3)[C@H](C)[C@H]12` [Example 12]: the MIC in assay [1] was 8 µg/mL (≈ 14.8 µM); in assay [2] it was 4 µg/mL (≈ 7.4 µM); in assay [3] it was 128 µg/mL (≈ 237 µM); in assay [4], 32 µg/mL (≈ 59.2 µM); in assay [5], more than 128 µg/mL.
On the same counts, the results for `C[C@@H](NC(=O)C(F)F)[C@H]1C(=O)N2C(C(=O)O)=C(S[C@@H]3CN[C@H](C(=O)N4CC[C@H](ON)C4)C3)[C@H](C)[C@H]12` [Example 148] are 1 to 2 µg/mL (≈ 1.93 to 3.86 µM), 0.5 µg/mL (≈ 0.966 µM), 1 µg/mL (≈ 1.93 µM), 2 to 4 µg/mL (≈ 3.86 to 7.73 µM) and 32 to 64 µg/mL (≈ 61.8 to 124 µM).
On the same counts, the results for `C[C@@H](NC(=O)C(F)F)[C@H]1C(=O)N2C(C(=O)O)=C(S[C@@H]3CN[C@H](C(=O)N4CC[C@H](NS(C)(=O)=O)C4)C3)[C@H](C)[C@H]12` [Example 110] are 4 µg/mL (≈ 6.9 µM), 0.5 µg/mL (≈ 0.863 µM), 2 µg/mL (≈ 3.45 µM), 4 µg/mL (≈ 6.9 µM) and 32 µg/mL (≈ 55.2 µM).
On the same counts, the results for `C[C@@H](NC(=O)C(F)F)[C@H]1C(=O)N2C(C(=O)O)=C(S[C@@H]3CN[C@H](CN4CCOCC4)C3)[C@H](C)[C@H]12` [Example 90] are 1 µg/mL (≈ 2.05 µM), 1 µg/mL (≈ 2.05 µM), 32 µg/mL (≈ 65.5 µM), 4 µg/mL (≈ 8.19 µM) and 128 µg/mL (≈ 262 µM).
With `C[C@@H](NC(=O)C(F)F)[C@H]1C(=O)N2C(C(=O)O)=C(S[C@@H]3CN[C@H](C(=O)NCCC(=O)NCCO)C3)[C@H](C)[C@H]12` [Example 116], the MIC in assay [1] was 8 µg/mL (≈ 14.6 µM); in assay [2] it was 0.5 µg/mL (≈ 0.913 µM); in assay [3], 2 µg/mL (≈ 3.65 µM); in assay [4], 4 µg/mL (≈ 7.3 µM); in assay [5], more than 128 µg/mL.
On the same counts, the results for `C[C@@H](NC(=O)C(F)F)[C@H]1C(=O)N2C(C(=O)O)=C(S[C@@H]3CN[C@H](CNS(C)(=O)=O)C3)[C@H](C)[C@H]12` [Example 85] are 1 µg/mL (≈ 2.01 µM), 0.5 µg/mL (≈ 1.01 µM), 2 µg/mL (≈ 4.03 µM), 2 µg/mL (≈ 4.03 µM) and 64 µg/mL (≈ 129 µM).
On the same counts, the results for `C[C@@H](NS(=O)(=O)CC(F)(F)F)[C@H]1C(=O)N2C(C(=O)O)=C(S[C@@H]3CN[C@H](C(=O)N(C)C)C3)[C@H](C)[C@H]12` [Example 86] are 2 µg/mL (≈ 3.78 µM), 1 µg/mL (≈ 1.89 µM), 8 µg/mL (≈ 15.1 µM), 8 µg/mL (≈ 15.1 µM) and 128 µg/mL (≈ 242 µM).

The MIC is the smallest concentration in the dilution series that meets the test's criterion for growth inhibition.
